Laboratory results from patent US11117904B2, “Compositions and methods for the delivery of therapeutics” (ViiV Healthcare Company, priority 2016, dated 2021).

Key:
[1] = Nanoparticle characterization by dynamic light scattering; type: physicochemical; details: upon derivatization of native drug into prodrug
Protocol: Nanoformulations were characterized for particle size, polydispersity index (PDI) and zeta potential by dynamic light scattering (FIG. 1). This was done using a Malvern Zetasizer, Nano Series Nano-ZS (Malvern Instruments Inc., Westborough, Mass.). Nanoparticle morphology was determined by scanning electron microscopy (SEM). Ultra performance liquid chromatography tandem mass-spectrometry (UPLC MS/MS) was used for drug quantitation. […] Further, the improved hydrophobicity of MDTG facilitated production of stable formulations with high drug loading capacity. Nanoformulations were characterized for particle size, polydispersity index (PDI) and zeta potential by dynamic light scattering (DLS) (Table 1). This was done using a Malvern Zetasizer, Nano Series Nano-ZS (Malvern Instruments Inc, Westborough, Mass.). Nanoparticle morphology was determined by scanning electron microscopy (SEM). UPLC MS/MS was used for drug quantitation. […] The improved hydrophobicity of MCAB facilitated production of stable formulations with high drug loading capacity.

[2] = system: human monocyte derived macrophages (MDM); test: Uptake and retention of drug in human monocyte derived macrophages (HPLC); type: cell-based
Protocol: Human monocytes were cultured in macrophage colony stimulating factor containing cell culture medium for 7-10 days in order to differentiate into macrophages (Balkundi et al. (2011) Intl. J. Nanomed., 6:3393-3404; Nowacek et al. (2009) Nanomed., 4(8):903-917). The macrophages were incubated with a range of formulations and native drugs. At each time point, adherent MDM were washed three times with 1 mL of PBS, scraped into 1 mL of fresh PBS and pelleted by centrifugation at 950×g for 8 minutes. The cell pellet was reconstituted in 200 μl of high performance liquid chromatography (HPLC)-grade methanol and probe sonicated followed by centrifugation at 20,000×g for 20 minutes. The supernatant was analyzed for drug content using HPLC (FIG. 2A and FIG. 2B). […] Human monocytes were cultured in macrophage colony stimulating factor containing cell culture medium for 7-10 days in order to differentiate into macrophages (Balkundi et al. (2011) Intl. J. Nanomed., 6:3393-3404; Nowacek et al. (2009) Nanomed., 4(8):903-917). The macrophages were incubated with a range of formulations and native drugs. At each time point, adherent monocyte-derived macrophage (MDM) were washed three times with 1 mL of PBS, scraped into 1 mL of fresh PBS and pelleted by centrifugation at 950×g for 8 minutes. […] The supernatant was analyzed for drug content using HPLC (FIGS. 4A and 4B). […]

HIV-1ADA = test: Antiretroviral activity in MDM challenged with HIV-1ADA (RT activity, HIV-1 p24 staining); type: cell-based; details: MDM treated with 100 μM for 8 hours, challenged with HIV-1ADA at MOI 0.01; RT activity and p24
Protocol: MDM were treated with either 100 μM DTG, MDTG, P407-MDTG or FA-P407-MDTG for 8 hours. The cells were washed with PBS to remove excess of free drug and nanoparticles. The MDM were challenged with HIV-1ADA at a MOI of 0.01 infectious viral particles/cell for 18 hours on day 1, 5, 10 and 15. Progeny virion production was measured by reverse transcriptase (RT) activity in culture medium (Kalter et al. (1992) J. Clin. Microbiol., 30(4):993-995) (FIG. 2C). HIV-1 p24 protein antigen expression was assessed (Guo et al. (2014) J. Virol., 88(17):9504-9513). The MDM were washed with PBS and fixed with 4% paraformaldehyde for 15 minutes at room temperature. The cells were blocked using 10% BSA containing 1% Triton X-100 in PBS for 30 minutes at room temperature. Following blocking, cells were incubated with HIV-1 p24 mouse monoclonal antibodies (1:50; Dako, Carpinteria, Calif., USA) for overnight at 4° C., followed by 1 hour incubation at room temperature. […]
MDM were treated with either 100 μM CAB long acting parenteral (CAB-LAP), P407-CAB, P407-MCAB or FA-P407-MCAB for 8 hours. […] Progeny virion production was measured by reverse transcription (RT) activity in culture medium (Kalter et al. (1992) J. Clin. Microbiol., 30(4):993-995). HIV-1 p24 protein antigen expression was assessed (Guo et al. (2014) J. Virol., 88(17):9504-9513) (FIG. 4C). […]

Structure (SMILES) | hydrophobicity [1] | intracellular accumulation of the drug ([2]; MDM, compared to CAB-LAP) | MDM retention ([2]; cellular retention in MDM) | antiretroviral efficacy (HIV-1ADA)
CCCCCCCCCCCCCC(=O)Oc1c2n(cc(C(=O)NCc3ccc(F)cc3F)c1=O)CC1OCC(C)N1C2=O (centres unmarked) [MCAB] | greatly improved | significantly improved | – | –
CCCCCCCCCCCCCC(=O)Oc1c2n(cc(C(=O)NCc3ccc(F)cc3F)c1=O)C[C@@H]1OCC[C@@H](C)N1C2=O [MDTG] | greatly improved | – | significant enhancements | significant enhancements
